The record followed here is patent US7989639B2 (Novartis AG, priority 2006, dated 2011).

Counter-ions that a name gives are not always drawn. Some results are limits rather than exact numbers.

Holding throughout (assay type): physicochemical
Data set [1] in a line: Thermogravimetric analysis (TGA) of the salts: loss on drying, desolvation and decomposition temperature. The following applies: for Tdecomposition: approximated by onset of first derivative of thermogravimetric curve vs. temperature, salt sample as obtained from the solvent/temperature; for Tdesolvation: value in brackets after LOD. The text has this: In addition, “loss on drying” (LOD) refers to weight loss determined between ambient and decomposition temperatures. The later is approximated by the onset of the first derivative of the thermogravimetric curve vs. temperature. […] Salt formation, stoichiometry, and the presence or absence of solvents is confirmed by observing the ^1H-NMR chemical shifts of the corresponding salt forming agents and reaction solvents (the tables contain one characteristic chemical shift for salt forming agents or solvents). […] The extent of protonation of the free base is assessed by the change in the chemical shift of the benzylic (Hbz) protons. […] Finally, “-” indicates a measurement not taken.
A stoichiometric amount of acetic acid was subsequently added to the suspension. The mixture was stirred at either 60° C. or ambient temperature (where a clear solution formed, stirring continued at 4° C.). Solids were collected by filtration and analyzed by XRPD, TGA and in some instances ^1H-NMR.

Data set [2] can be described thus: Hygroscopicity / moisture uptake observed on isolation of the salts. The following applies: observation on isolated solid / during filtration. Here is the method:
A stoichiometric amount of sodium hydroxide was subsequently added to the suspension. The mixture was stirred at 50° C. Once a clear solution formed, stirring continued at 4° C. Solids were collected by filtration and analyzed by XRPD and TGA.
It is noted that the initially formed yellow powder is a polymorph of the mesylate salt that contains more than the equimolar amount of methane sulfonic acid. […] Upon gentle heating to 40 or 50° C. and within 2 to 4 hours, the yellow powder converts to a white crystalline solid that contains the equimolar amount of the methane sulfonic acid. This salt is non-hygroscopic. It is also advised that addition of the methane sulfonic acid is done at ambient temperature and the temperature increased afterwards. It was observed that addition at higher temperature afforded the immediate precipitation of the salt as a soft and gummy material.

The nature of data set [3]: Thermogravimetric analysis (TGA) of the salts: loss on drying, desolvation and decomposition temperature. The following applies: isothermal hold at 120° C. for 10 minutes.

As to `Cc1[nH]c2ccccc2c1CCNCc1ccc(/C=C/C(=O)NO)cc1` [phosphate salt form HA, N-hydroxy-3-[4-[[[2-(2-methyl-1H-indol-3-yl)ethyl]amino]methyl]phenyl]-2E-2-propenamide], the Tdecomposition in data set [1] is 179.6 °C.

Consider `Cc1[nH]c2ccccc2c1CCNCc1ccc(/C=C/C(=O)NO)cc1` [mesylate salt form B, N-hydroxy-3-[4-[[[2-(2-methyl-1H-indol-3-yl)ethyl]amino]methyl]phenyl]-2E-2-propenamide], for which the Hygroscopicity entry in data set [2] (listed as mesylate salt white crystalline solid) is recorded as “non-hygroscopic”.

Turning to `Cc1[nH]c2ccccc2c1CCNCc1ccc(/C=C/C(=O)NO)cc1` [potassium salt, N-hydroxy-3-[4-[[[2-(2-methyl-1H-indol-3-yl)ethyl]amino]methyl]phenyl]-2E-2-propenamide], the Hygroscopicity result in data set [2] is “highly hygroscopic”.

In the case of `Cc1[nH]c2ccccc2c1CCNCc1ccc(/C=C/C(=O)NO)cc1` [zinc salt, N-hydroxy-3-[4-[[[2-(2-methyl-1H-indol-3-yl)ethyl]amino]methyl]phenyl]-2E-2-propenamide], the Hygroscopicity result in data set [2] is given as “less hygroscopic than the sodium or potassium salt”.

In the case of `Cc1[nH]c2ccccc2c1CCNCc1ccc(/C=C/C(=O)NO)cc1` [sodium salt, N-hydroxy-3-[4-[[[2-(2-methyl-1H-indol-3-yl)ethyl]amino]methyl]phenyl]-2E-2-propenamide], the Hygroscopicity entry in data set [2] was “highly hygroscopic”.

`Cc1[nH]c2ccccc2c1CCNCc1ccc(/C=C/C(=O)NO)cc1` [acetate salt form A, N-hydroxy-3-[4-[[[2-(2-methyl-1H-indol-3-yl)ethyl]amino]methyl]phenyl]-2E-2-propenamide]: the Tdecomposition in data set [1] (salt formed in AcOEt at 60 °C) was found to be 147.9 °C; in data set [1] (salt formed in IPA at 60 °C), 148.7 °C. Besides, in data set [1], the Tdesolvation stood at 72.5 °C.

Turning to `Cc1[nH]c2ccccc2c1CCNCc1ccc(/C=C/C(=O)NO)cc1` [mesylate salt form A, N-hydroxy-3-[4-[[[2-(2-methyl-1H-indol-3-yl)ethyl]amino]methyl]phenyl]-2E-2-propenamide], the Tdecomposition in data set [1] was determined as 170.9 °C. Also, in data set [2] (listed as mesylate salt yellow powder), the Hygroscopicity entry is “very highly hygroscopic”.

Regarding `Cc1[nH]c2ccccc2c1CCNCc1ccc(/C=C/C(=O)NO)cc1` [oxalate salts, N-hydroxy-3-[4-[[[2-(2-methyl-1H-indol-3-yl)ethyl]amino]methyl]phenyl]-2E-2-propenamide], the Hygroscopicity result in data set [2] is “appear to absorb water during filtration”.

Turning to `Cc1[nH]c2ccccc2c1CCNCc1ccc(/C=C/C(=O)NO)cc1` [acetate salt form SA, N-hydroxy-3-[4-[[[2-(2-methyl-1H-indol-3-yl)ethyl]amino]methyl]phenyl]-2E-2-propenamide], in data set [1], the Tdecomposition was determined as 147.9 °C and the Tdesolvation worked out at 107.9 °C.

Regarding `Cc1[nH]c2ccccc2c1CCNCc1ccc(/C=C/C(=O)NO)cc1` [benzoate salt form A, N-hydroxy-3-[4-[[[2-(2-methyl-1H-indol-3-yl)ethyl]amino]methyl]phenyl]-2E-2-propenamide], the Tdecomposition in data set [1] was determined as 160.2 °C.

For the compound `Cc1[nH]c2ccccc2c1CCNCc1ccc(/C=C/C(=O)NO)cc1` [hemi-tartarate salt form B, N-hydroxy-3-[4-[[[2-(2-methyl-1H-indol-3-yl)ethyl]amino]methyl]phenyl]-2E-2-propenamide], the Tdecomposition in data set [1] was above 160 °C.

On to `Cc1[nH]c2ccccc2c1CCNCc1ccc(/C=C/C(=O)NO)cc1` [gentisate salt form A, N-hydroxy-3-[4-[[[2-(2-methyl-1H-indol-3-yl)ethyl]amino]methyl]phenyl]-2E-2-propenamide], for which the Tdecomposition in data set [1] was 235.5 °C.

Consider `Cc1[nH]c2ccccc2c1CCNCc1ccc(/C=C/C(=O)NO)cc1` [hydrochloride salt form A, N-hydroxy-3-[4-[[[2-(2-methyl-1H-indol-3-yl)ethyl]amino]methyl]phenyl]-2E-2-propenamide], for which, in data set [1], the Tdecomposition worked out at 232.3 °C.

As to `Cc1[nH]c2ccccc2c1CCNCc1ccc(/C=C/C(=O)NO)cc1` [hemi-fumarate salt form B, N-hydroxy-3-[4-[[[2-(2-methyl-1H-indol-3-yl)ethyl]amino]methyl]phenyl]-2E-2-propenamide], in data set [1], the Tdecomposition came out at 213.2 °C.

As to `Cc1[nH]c2ccccc2c1CCNCc1ccc(/C=C/C(=O)NO)cc1` [sulfate salt form A, N-hydroxy-3-[4-[[[2-(2-methyl-1H-indol-3-yl)ethyl]amino]methyl]phenyl]-2E-2-propenamide], the Tdecomposition in data set [1] was around 160 °C. Moreover, the Hygroscopicity result in data set [2] was “hygroscopic”.

As to `Cc1[nH]c2ccccc2c1CCNCc1ccc(/C=C/C(=O)NO)cc1` [mesylate salt forms A + B, N-hydroxy-3-[4-[[[2-(2-methyl-1H-indol-3-yl)ethyl]amino]methyl]phenyl]-2E-2-propenamide], the Tdecomposition in data set [1] amounted to 172.8 °C.

In the case of `Cc1[nH]c2ccccc2c1CCNCc1ccc(/C=C/C(=O)NO)cc1` [benzoate salt form SB, N-hydroxy-3-[4-[[[2-(2-methyl-1H-indol-3-yl)ethyl]amino]methyl]phenyl]-2E-2-propenamide], the Tdecomposition entry in data set [1] was “dec. at 100 °C”. The “LOD % (isothermal)” value in data set [3] is 6.3%.

Consider `Cc1[nH]c2ccccc2c1CCNCc1ccc(/C=C/C(=O)NO)cc1` [hemi-malonate salt form A, N-hydroxy-3-[4-[[[2-(2-methyl-1H-indol-3-yl)ethyl]amino]methyl]phenyl]-2E-2-propenamide], for which the results for the Tdecomposition in data set [1] (salt prepared in EtOH) and in data set [1] (salt prepared in IPA) were 169.5 °C and 174.1 °C, respectively.

With `Cc1[nH]c2ccccc2c1CCNCc1ccc(/C=C/C(=O)NO)cc1` [hemi-succinate salt form SA, N-hydroxy-3-[4-[[[2-(2-methyl-1H-indol-3-yl)ethyl]amino]methyl]phenyl]-2E-2-propenamide], in data set [1], the Tdecomposition is 155.8 °C and the Tdesolvation entry is recorded as “(90.6) (2- ° C”.

For the compound `Cc1[nH]c2ccccc2c1CCNCc1ccc(/C=C/C(=O)NO)cc1` [benzoate salt form SA, N-hydroxy-3-[4-[[[2-(2-methyl-1H-indol-3-yl)ethyl]amino]methyl]phenyl]-2E-2-propenamide], the Tdecomposition result in data set [1] was “at 110 °C”. The “LOD % (isothermal)” value in data set [3] came out at 5.2%.

Take `Cc1[nH]c2ccccc2c1CCNCc1ccc(/C=C/C(=O)NO)cc1` [calcium salt, N-hydroxy-3-[4-[[[2-(2-methyl-1H-indol-3-yl)ethyl]amino]methyl]phenyl]-2E-2-propenamide]: the Hygroscopicity entry in data set [2] is reported as “less hygroscopic than the sodium or potassium salt”.

In the case of `Cc1[nH]c2ccccc2c1CCNCc1ccc(/C=C/C(=O)NO)cc1` [maleate salt polymorph from 2-propanol (yellow powder)] [N-hydroxy-3-[4-[[[2-(2-methyl-1H-indol-3-yl)ethyl]amino]methyl]phenyl]-2E-2-propenamide], the Tdecomposition in data set [1] came out at 118.9 °C.

As to `Cc1[nH]c2ccccc2c1CCNCc1ccc(/C=C/C(=O)NO)cc1` [maleate salt form HA, N-hydroxy-3-[4-[[[2-(2-methyl-1H-indol-3-yl)ethyl]amino]methyl]phenyl]-2E-2-propenamide], the Tdecomposition in data set [1] was found to be 150 °C.

In the case of `Cc1[nH]c2ccccc2c1CCNCc1ccc(/C=C/C(=O)NO)cc1` [hemi-fumarate salt form HA, N-hydroxy-3-[4-[[[2-(2-methyl-1H-indol-3-yl)ethyl]amino]methyl]phenyl]-2E-2-propenamide], the Tdecomposition in data set [1] was 159.8 °C.

Turning to `Cc1[nH]c2ccccc2c1CCNCc1ccc(/C=C/C(=O)NO)cc1` [sulfate salt form SA, N-hydroxy-3-[4-[[[2-(2-methyl-1H-indol-3-yl)ethyl]amino]methyl]phenyl]-2E-2-propenamide], in data set [1], the Tdecomposition was 162 °C.

Consider `Cc1[nH]c2ccccc2c1CCNCc1ccc(/C=C/C(=O)NO)cc1` [hemi-malate salt form SA, N-hydroxy-3-[4-[[[2-(2-methyl-1H-indol-3-yl)ethyl]amino]methyl]phenyl]-2E-2-propenamide], for which, in data set [1], the Tdecomposition worked out at 95 °C.
